Test [1] deals with T1, GDH (Bos taurus, UniProt P00366).
T1 construct: purchased Sigma Aldrich Chemical Company (St. Louis, Mo.)
As to the kind of experiment: abrogation of EGCG inhibition of GDH by leucine, BCH and ADP. The test is classed as biochemical, bovine. On the procedure:
(§1) First, aliquots of GDH were extensively dialyzed against 0.1M sodium phosphate buffer, pH 7.0, which contained 1 mM ethylenediaminetetraacetic acid (EDTA). The enzyme concentrations were adjusted to 1 mg/ml and the amount of enzyme added to the reaction mixture, for kinetic analysis, was adjusted to yield optimal steady state velocity measurements. All solutions were made immediately prior to use. Enzyme assays were performed by monitoring reduced coenzyme absorbance at 340 nm using a Shimadzu UV-1601 spectrophotometer. The reductive amination reactions were performed in 3 mL volumes at pH 7.0 in the presence of 0.1 mM nicotinamide adenine dinucleotide (NADH), 50 mM NH4Cl, and 5 mM 2-oxoglutarate. The rate of NADH oxidation was calculated using an extinction coefficient of 6.22 mM^−1 cm^−1.
The ability of the activators BCH, leucine, and ADP to reverse EGCG regulation on GDH was next examined. More particularly, kinetic analysis of GDH activity was carried out as described in Example 1, wherein each reaction contained either (a) 0 μM EGCG plus leucine; (b) 1 μM EGCG plus leucine; (c) 0 μM EGCG plus BCH; (d) 1 μM EGCG plus BCH; (e) 0 μM EGCG plus ADP; or (f) 1 μM EGCG plus ADP.

In a further test the test system is islets. Briefly: [U-14C]-glucose oxidation in islets. It counts as cell-based, rat. The settings on record: wide range of EGCG concentrations; 3 mM or 12 mM glucose; FIG. 10. As for the experimental part:
In addition, the effect of EGCG on glucose oxidation was measured. More particularly, batches of 100 islets were prepared as described herein and preincubated with glucose-free Krebs-Ringer bicarbonate buffer containing varying concentrations of EGCG (shown in FIG. 10) for 60 minutes. Islets were then incubated with 3 mM or 12 mM glucose, in the presence of the varying concentrations of EGCG, for another 60 minutes, along with 2 mCi [U-^14C]-glucose (NEN-Life Science Products, UK). Production of ^14CO2 was monitored as described above.

For test [2], the system named is rat islets. Briefly: BCH-stimulated insulin secretion and oxygen consumption in perifused islets. The test is classed as cell-based, Wistar rat. On the procedure: In this Example, the effects of EGCG and EGC on LSIS were measured, while simultaneously monitoring respiration rates. More particularly, the effects of EGCG (20 μM) and EGC (20 μM) on BCH-stimulated insulin secretion were measured. First, 1000 adult male Wistar rat islets were isolated as described above and were cultured on a glass perfusion chamber in 10 mM glucose for 3 days. Next, the islets were perifused in an oxygen consumption measurement apparatus containing BCH, along with 0 μM EGCG and 0 μM EGC, 20 μM EGCG, or 20 μM EGC. The perifusion apparatus used in these Examples consisted of a peristaltic pump, a water bath (37° C.), a gas exchanger (artificial lung: media flowed through the thin-walled silastic tubing loosely coiled in a glass jar that contained 20% O2 and 5% CO2 balanced with N2), and fraction collector. All transfer lines were insulated. After the system was provided with 20 μM EGCG or 20 μM EGC, oxygen partial pressure was recorded every 10 seconds by phosphorescence lifetimes of an oxygen-sensitive porphyrin (palladium-mesotetra; 4-carboxyphenyl porphyrin dendrimer). The dye molecules were excited with pulses at 524 nm from a UV lead and emission was measured at 690 nm. The inflow oxygen tension was measured in the absence of islets in the chamber before and after each experiment. The perifusate was a Krebs buffer (pH 7.4) containing 2.2 mM Ca^2+, 1% bovine serum albumin equilibrated with 20% O2 and 5% CO2 balanced with N2. The flow rate was […] and samples were collected every 2 minutes for insulin measurements by radioimmunoassay. The results are summarized in FIG. 6, and are presented as means±S.E. for 1000 islets from 3 separate experiments for EGCG (and from 1 experiment for EGC). Due to the high density of data, S.E. is only shown in every 20 samples.

The test system of test [3] is rat islets. Briefly: BCH-stimulated insulin secretion in perifused islets (120 minute run-down, BCH ramp). It counts as cell-based, Wistar rat. As for the experimental part:
In this Example, adult male Wistar rat islets were isolated by collagenase digestion and initially cultured in glucose-free RPMI […] medium (Sigma Aldrich Chemical Company, St. Louis, Mo.). The culture medium was supplemented with 10% fetal bovine serum, 2 mM glutamine, 100 units/mL penicillin, and 50 μg/mL streptomycin.
The islets were then perifused in the absence of glucose and in the presence of 2 mM glutamine (and the different concentrations of EGCG or EGC shown in FIG. 5) for run-down periods of 120 minutes prior to stimulation with a BCH ramp (0 to 10 mM, 0.2 mM/minute). Specifically, 100 cultured rat islets were loaded onto nylon filters in a small chamber and perifused in a Krebs-Ringer bicarbonate buffer (115 mmol/liter NaCl, 24 mmol/liter NaHCO3, 5 mmol/liter KCl, 1 mmol/liter MgCl2, 2.5 mmol/liter CaCl2, in 10 mM HEPES, pH 7.4) with 0.25% bovine serum albumin at a flow rate of 2 mL/minute. Perifusate solutions were gassed with 95% O2/5% CO2 and maintained at 37° C. Finally, the islets were exposed to 30 mM KCl. Samples were collected every minute to measure insulin levels by radioimmunoassay.

Test [4] has as its system rat islets. As to the kind of experiment: insulin secretion and oxygen consumption during glucose stimulation. The test is classed as cell-based. As for the experimental part: Next, insulin secretion and oxygen consumption were measured, as described herein, during glucose stimulation to confirm the above results. Isolated rat islets were isolated and cultured, as described above, with 10 mM glucose for 3 days and subsequently perifused in the oxygen consumption measurement apparatus described above. […] In general, FCCP is known to stimulate Mg^2+-ATPase activity, inhibit β-amyloid production, and mimic the effect of selective glutamate agonist N-methyl-D-aspartate (NMDA) on mitochondrial superoxide production. The results shown in FIG. 9 are presented as means±S.E. for 1000 islets from 3 separate experiments. Due to the high density of data, S.E. is only shown in every 20 samples.

In test [5] the target is T1, GDH. Briefly: steady state kinetic analysis of reductive amination, NADH or 2-oxoglutarate varied (Lineweaver-Burke plots). Also on record: Y-intercept (Lineweaver-Burke): unit not given beside the values. The test is classed as biochemical, bovine. On the procedure: as §1
In this Example, EGCG was added to a reaction (at a final concentration of 0.0, 0.3, or 0.6 μM), along with various concentrations of NADH or 2-oxoglutarate, to further ascertain how EGCG inhibits the reductive amination reaction catalyzed by GDH. Such kinetic analysis was carried out as described above in Example 1.

[6] abbreviates: 2-oxoglutarate varied, [EGCG] 0.3 μM.
[7] abbreviates: 2-oxoglutarate varied, [EGCG] 0.6 μM.

Read-outs that look alike come from different tables or passages of the source.

T1 sequence (P00366 58-558): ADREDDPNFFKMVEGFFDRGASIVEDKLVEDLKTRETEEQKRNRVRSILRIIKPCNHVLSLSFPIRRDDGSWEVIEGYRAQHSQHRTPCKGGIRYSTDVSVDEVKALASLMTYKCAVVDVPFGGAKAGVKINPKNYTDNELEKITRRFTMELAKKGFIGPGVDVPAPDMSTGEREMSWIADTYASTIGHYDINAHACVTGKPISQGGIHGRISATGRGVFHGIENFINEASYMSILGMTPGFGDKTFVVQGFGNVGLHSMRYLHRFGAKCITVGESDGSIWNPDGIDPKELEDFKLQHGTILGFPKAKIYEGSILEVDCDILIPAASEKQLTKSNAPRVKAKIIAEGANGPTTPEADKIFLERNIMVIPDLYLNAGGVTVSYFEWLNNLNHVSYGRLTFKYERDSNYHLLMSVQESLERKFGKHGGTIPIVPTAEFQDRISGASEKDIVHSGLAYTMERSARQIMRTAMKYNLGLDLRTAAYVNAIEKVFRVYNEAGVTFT

Regarding `O=C(O[C@@H]1Cc2c(O)cc(O)cc2O[C@@H]1c1cc(O)c(O)c(O)c1)c1cc(O)c(O)c(O)c1` [EGCG, (2R,3R)-2-(3,4,5-Trihydroxyphenyl)-3,4-dihydro-1 (2H)-benzopyran-3,5,7-triol 3-(3,4,5-trihydroxybenzoate)], the inhibition at 1 µM at GDH [1] (1 μM EGCG plus leucine, BCH or ADP, read-out: EGCG inhibition at the highest concentration of activators) was ~30%; at GDH [1] (1 μM EGCG, without activator, read-out: inhibition of the reaction), > 80%. Moreover, the “effect on glucose oxidation” value in the test with islets is “did not affect”. In addition, the “effect on LSIS (BCH-induced insulin secretion)” value in the test with rat islets [2] (20 μM, FIG. 6A) is “strongly inhibited”. The “effect on BCH-induced increase in respiration rates” value in the test on rat islets [2] (20 μM, FIG. 6B) is on record as “inhibited”. Further, in the test on rat islets [2] (data not shown), the “effect on oxygen consumption in the absence of BCH” value is “did not have any significant effect”. Moreover, in the test with rat islets [3] (30 mM KCl), the “intrinsic ability of the cells to secrete insulin (depolarization by KCl)” value is listed as “did not affect”. Also, in the test on rat islets [3] (FIG. 5), the “BCH stimulation of insulin secretion blocked” value is “blocked”. In addition, the “effect on GSIS” value in the test with rat islets [4] (FIG. 9A) is given as “does not affect”. In addition, in the test with rat islets [4] (FIG. 9B), the “effect on respiration during glucose stimulation” value is “does not affect”. Moreover, the “Slope (Lineweaver-Burke)” value is listed as 0.039 ± 0.002 at GDH [5] (setting [6]); 0.15 ± 0.02 at GDH [5] (setting [7]); 0.0026 ± 0.0002 on GDH [5] (NADH varied, [EGCG] 0.3 μM); 0.0040 ± 0.0003 at GDH [5] (NADH varied, [EGCG] 0.6 μM). Also, the “Y-intercept (Lineweaver-Burke)” value on GDH [5] (setting [6]) is 0.24 ± 0.1; on GDH [5] (setting [7]) it was 0.097 ± 0.5; at GDH [5] (NADH varied, [EGCG] 0.3 μM), 0.15 ± 0.01; at GDH [5] (NADH varied, [EGCG] 0.6 μM) it was 0.2000 ± 0.02. For the same compound, the mode of inhibition entry at GDH [5] (versus NADH and 2-oxoglutarate) is “non-competitive inhibition”.

The record behind these values is patent US20060263453A1, “Methods and compositions for modulating glutamate dehydrogenase” (priority 2004, published 2006).
